Measured values published in paper PMC3257521 (Biochemistry, 2011).
Positions count from the first letter of the chain named. Names and notes keep the numbering of the source. Values joined by “and” are separate entries in the source; they are usually repeats but may differ in a detail not shown here. Equal values may be shown once.

B1: C167A (protein, UniProt P53184 1-216, looked up, variant C167A)
Nicotinamidase: MKTLIVVDMQNDFISPLGSLTVPKGEELINPISDLMQDADRDWHRIVVTRDWHPSRHISFAKNHKDKEPYSTYTYHSPRPGDDSTQEGILWPVHCVKNTWGSQLVDQIMDQVVTKHIKIVDKGFLTDREYYSAFHDIWNFHKTDMNKYLEKHHTDEVYIVGVALEYAVKATAISAAELGYKTTVLLDYTRPISDDPEVINKVKEELKAHNINVVDK
B2: K122R (protein, UniProt P53184 1-216, looked up, variant K122R)
Nicotinamidase: B1 Nicotinamidase with K122R, A167C

Tests used:
[1] = system: nicotinamidase from M. lysodeikticus; details: cited from earlier work
Pnc1 [2] = molecular target: T1, Pnc1 (Saccharomyces cerevisiae, UniProt P53184); assay: 15N kinetic isotope effect with substrates; format: biochemical, S. cerevisiae
T1 sequence (P53184 whole entry): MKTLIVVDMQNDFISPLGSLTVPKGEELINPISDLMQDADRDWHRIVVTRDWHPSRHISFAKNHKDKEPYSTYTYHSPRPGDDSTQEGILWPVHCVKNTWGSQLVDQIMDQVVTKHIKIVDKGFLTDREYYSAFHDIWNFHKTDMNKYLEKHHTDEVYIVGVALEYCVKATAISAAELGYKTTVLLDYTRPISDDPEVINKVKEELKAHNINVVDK

Pnc1 [3] = molecular target: T1, Pnc1; format: biochemical, S. cerevisiae
Pnc1 [4] = molecular target: T1, Pnc1; assay: 13C kinetic isotope effect with substrates; format: biochemical, S. cerevisiae
[5] = Literature hydrolysis in basic solution; format: physicochemical; details: 25 °C in 0.1 N NaOH
[6] = 25 °C in 0.1 N NaOH; cited from earlier work
yeast nicotinamidases = details: previous reports; cited from earlier work
Pnc1 [7] = molecular target: T1, Pnc1; assay: Dependence of kcat on pH; format: biochemical, S. cerevisiae; details: pH 4.5 to 10.5
[8] = system: nicotinamidase from S. cerevisiae; details: cited from earlier work
[9] = system: nicotinamidase from M. tuberculosis; details: cited from earlier work
Pnc1 WT or mutant [10] = molecular target: Pnc1 WT or mutant (Saccharomyces cerevisiae, UniProt P53184, C167A); assay: Steady-state kinetic parameters of Pnc1 mutants, enzyme-coupled assay; format: biochemical, S. cerevisiae; details: substrate nicotinamide
Pnc1 WT or mutant [11] = assay: as above; format: biochemical, S. cerevisiae; details: substrate nicotinamide; for kcat: pH 7.5
Pnc1 WT or mutant [12] = assay: 15N kinetic isotope effect of Pnc1 mutants; format: biochemical, S. cerevisiae; details: substrate nicotinamide, pH 7.5
Pnc1 WT or mutant [13] = molecular target: Pnc1 WT or mutant (Saccharomyces cerevisiae, UniProt P53184, K122R); assay: 13C kinetic isotope effect of Pnc1 mutants; format: biochemical, S. cerevisiae; details: substrate nicotinamide
Pnc1 WT or mutant (Saccharomyces cerevisiae, UniProt P53184, K122R), sequence (P53184 whole entry K122R): as the sequence (P53184 whole entry) above, with K122R counted along it

Pnc1 WT or mutant [14] = assay: 13C kinetic isotope effect of Pnc1 mutants; format: biochemical, S. cerevisiae; details: substrate nicotinamide, pH 7.5

Row | Molecule | 15N KIE (Pnc1 [2]; on V/K, pH 7.5) | fold higher Km compared to nicotinamide (Pnc1 [3]) | 13C KIE (Pnc1 [4]; on V/K, pH 7.5) | fold decreased kcat/Km compared to nicotinamide (Pnc1 [3]) | pseudo-first-order rate of hydrolysis in basic solutions [6] | 15N KIE (Pnc1 [2]; as percent) | 13C KIE (Pnc1 [4]; as percent) | kcat (Pnc1 WT or mutant [11]) | also measured
1 | Cc1cncc(C(N)=O)c1 [5-methylnicotinamide] | 1.0151 ± 0.0009 | 6 fold | 1.0269 ± 0.0037 |  |  |  |  |  | Km [1]: 360 µM
2 | NC(=O)c1ccccc1 [benzamide] |  |  |  | 200 fold | 0.00408 h⁻¹ |  |  |  | fold slower hydrolysis rate compared to nicotinamide [5]: 7 fold; fold lower kcat compared to nicotinamide (Pnc1 [3]): 78 fold
3 | NC(=O)c1cccnc1 [nicotinamide] | 1.0122 ± 0.0002 |  | 1.0125 ± 0.0004 |  | 0.0301 h⁻¹ | ~ 1.2% and 1.2% | ~ 1.2% |  | Km (yeast nicotinamidases): 6 to 10 µM; kcat (Pnc1 [3]; substrate of Pnc1, pH 7.5): 0.69 s⁻¹; critical ionizations in kcat pH profile (Pnc1 [7]): no critical ionizations; variation of kcat between the pH extremes (Pnc1 [7]): 4 fold
4 | NC(=O)c1cnccn1 [pyrazinamide] | 1.0231 ± 0.0007 | 16 fold | 1.0196 ± 0.0023 | 4.5 fold |  | 2.3% | 2.0% |  | fold faster kcat compared to nicotinamide (Pnc1 [3]): 3.7 fold; Km [8]: 200 µM; Km [9]: 300 µM
5 | B1 |  |  |  |  |  |  |  | < 0.0005 s⁻¹ | nicotinamidase activity (Pnc1 WT or mutant [10]): lost all detectable nicotinamidase activity
6 | B2 |  |  |  |  |  |  |  | 0.0009 ± 0.0002 s⁻¹ | 15N KIE (Pnc1 WT or mutant [12]): 1.0127 ± 0.0003; fold lower kcat compared to Pnc1 WT (Pnc1 WT or mutant [11]): 767 fold; 13C effect higher than wild-type enzyme (Pnc1 WT or mutant [13]): ~ 0.4%; 13C KIE (Pnc1 WT or mutant [14]): 1.0172 ± 0.0001
